Test [1] deals with T1, 11β-hsd-1 enzyme (Homo sapiens, UniProt P28845). As to the kind of experiment: biochemical. The protocol:
The 11β-hsd-1 assay was performed in a 100 mM Triethanolamine buffer pH 8.0, containing 200 mM NaCl, 0.02% n-dodecyl β-D-maltoside, 5% glycerol, 5 mM β-mercaptoethanol. A typical reaction for the determination of Kiapp values was carried at R.T. in a Corning® u-bottom 96-well plate and is described as follows: 11β-hsd-1 enzyme (5 nM, final concentration) was pre-incubated in the presence of the inhibitor and NADPH (500 μM, final concentration) for at least 30 minutes in the assay buffer. When pre-incubation was completed, the reaction was initiated by adding the regenerating system (2 mM Glucose-6-Phosphate, 1U/mL Glucose-6-Phosphate dehydrogenase, and 6 mM MgCl2, all the concentration reported are final in the assay buffer), and 3H-cortisone (200 nM, final concentration). After 60 minutes, 60 μL of the assay mixture was transferred to a second 96-well plate and mixed with an equal volume of dimethylsulfoxide to stop the reaction. A 15 μL aliquot from the reaction mixture was loaded into a C-18 column (Polaris C18-A, 50×4.6 mm, 5 μ, 180 Angstrom from Varian) connected to an automated High-throughput Liquid Chromatography instrument developed by Cohesive Technologies Inc, of Franklin, Mass. USA, with a β-RAM model 3 Radio-HPLC detector from IN/US, of Tampa, Fla. USA. The substrate and product peaks were separated by using an isocratic mixture of 43:57 methanol to water (v/v) at a flow rate of 1.0 mL/min.
The initial reaction velocities were measured by stopping the reaction at 60 min and by measuring the area of product formation in the absence and the presence of various concentrations of inhibitors. The Kiapp values were determined using the equation for tight-binding inhibitor developed by Morrison, J. F. (Morrison J. F. Biochim BiophysActa. 1969; 185: 269-86).
The radiolabeled [1,2-3H]-cortisone is commercially available from American Radiolabeled Chemicals Inc of St. Louis, Mo. USA. NADPH, Glucose-6-Phosphate, and Glucose-6-Phosphate dehydrogenase were purchased from Sigma®.
(Morrison J. F. Biochim Biophys Acta. 1969; 185: 269-86).

Test [2] addresses T1, 11β-hsd-1 enzyme. Description: biochemical. As to conditions: for inhibition at 100 µM: Table 2, inhibitor 0.1 mM as printed; for inhibition at 100 µM / inhibition: read-out: % Inh @ 0.1 mM; for inhibition at 0.1 µM: read-out: % Inh @ 0.1 μM. A digest of the protocol:
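Human 11β-HSD-1 (5 nM) pre-incubated ≥30 min with inhibitor and 500 μM NADPH in triethanolamine buffer pH 8.0 with NaCl, n-dodecyl β-D-maltoside and β-ME; reaction started with G6P/G6PDH/MgCl2 regenerating system and 200 nM 3H-cortisone, run 60 min, stopped with DMSO. 3H-cortisol and substrate separated by radio-HPLC; percent inhibition from peak areas.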

Where two headings read alike, the source gives them in different places.

T1 sequence (P28845 whole entry, species assumed): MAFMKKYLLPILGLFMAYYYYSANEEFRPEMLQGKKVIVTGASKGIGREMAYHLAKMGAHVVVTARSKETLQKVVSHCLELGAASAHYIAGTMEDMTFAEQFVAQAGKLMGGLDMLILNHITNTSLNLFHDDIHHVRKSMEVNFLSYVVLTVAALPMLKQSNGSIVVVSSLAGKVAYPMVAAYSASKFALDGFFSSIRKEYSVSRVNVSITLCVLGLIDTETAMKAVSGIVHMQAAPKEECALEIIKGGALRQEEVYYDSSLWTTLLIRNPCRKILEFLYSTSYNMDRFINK

The term Ki denotes a measure of affinity in units of concentration, obtained from inhibition or displacement. The compound `Cc1ccc(N2CCN(S(=O)(=O)Nc3cccc(C)n3)CC2=O)cc1` [Example 140, 4-(4-methylphenyl)-N-(6-methylpyridin-2-yl)-3-oxopiperazine-1-sulfoflamide] came in with a Ki at 11β-hsd-1 enzyme [1] of 250 nM. On 11β-hsd-1 enzyme [2], the inhibition at 100 µM stood at 85.7%.
`CCc1cccc(NS(=O)(=O)N2CCC(C(F)(F)F)CC2)n1` [Example 106, N-(6-ethylpyridin-2-yl)-4-(trifluoromethyl)piperidine-1-sulfonamide] came in with a Ki on 11β-hsd-1 enzyme [1] of 7 nM. Also, the inhibition at 11β-hsd-1 enzyme [2] came to 100%.
Turning to `CCc1cccc(NS(=O)(=O)N2CCC(c3ccccc3)CC2)n1` [Example 121, N-(6-ethylpyridin-2-yl)-4-phenylpiperidine-1-sulfanamide], at 11β-hsd-1 enzyme [1], the Ki worked out at 3.5 nM. The inhibition at 11β-hsd-1 enzyme [2] is 100%.
On 11β-hsd-1 enzyme [1], `CCc1cccc(NS(=O)(=O)N2CC[C@@H]3CCCC[C@@H]3C2)n1` (racemic) [Example 120, (4aS*8aS*)-N-(6-ethylpyridin-2-yl)octahydro-isoquinoline-2(1H)-sulfonamide] registered a Ki of 13 nM. For the same compound, the inhibition at 11β-hsd-1 enzyme [2] came out at 100%.
Consider `Cc1cccc(NS(=O)(=O)N2CCc3ccc(S(C)(=O)=O)cc3CC2)n1` [Example 10], for which the Ki at 11β-hsd-1 enzyme [1] worked out at 25.5 nM. For the same compound, the inhibition at 0.1 µM on 11β-hsd-1 enzyme [2] came to 79.9%.
With `Cc1cccc(NS(=O)(=O)N2CCCN(C(=O)OCc3ccccc3)CC2)n1` [Example 134, benzyl 4-{[(6-methylpyridin-2-yl)amino]sulfonyl}-14-diazepane-1-carboxylate], affinity on 11β-hsd-1 enzyme [1] was put at a Ki of 110 nM. In addition, the inhibition on 11β-hsd-1 enzyme [2] was found to be 76.7%.
`CCOC(=O)Cc1cccc(NS(=O)(=O)N2CCc3ccccc3CC2)n1` [Example 15, Ethyl {6-[(1,2,4,5-tetrahydro-3H-3-benzazepin-3-ylsulfonyl)amino]pyridin-2-yl}acetate]: affinity at 11β-hsd-1 enzyme [1] was put at a Ki of 2 nM. Further, the inhibition at 0.1 µM on 11β-hsd-1 enzyme [2] was found to be 100%.
On the same counts, the results for `C[C@@H]1CN(S(=O)(=O)Nc2cccc(CO)n2)CCN1c1ccc(C#N)cn1` [Example 30] are more than 1 nM and 100%.
On the same counts, the results for `Cc1cccc(NS(=O)(=O)N2CCN(c3ccc(C#N)cn3)[C@H](C)C2)n1` [Example 23, (3R)-4-(5-cyanopyridin-2-yl)-3-methyl-N-(6-methylpyridin-2-yl)piperazine-1-sulfonamide] are 19.8 nM and 100%.
The compound `CCc1cccc(NS(=O)(=O)N2CCN(c3nc4ccc(Cl)cc4o3)CC2)n1` [Example 186, 4-(6-chloro-13-benzoxazol-2-yl)-N-(6-ethylpyridin-2-yl)piperazine-1-sulfonamide] displayed a Ki at 11β-hsd-1 enzyme [1] of 8.9 nM. For the same compound, the inhibition at 100 µM on 11β-hsd-1 enzyme [2] amounted to 100%.
`CCc1cccc(NS(=O)(=O)N2CCCC(c3ccnc(N4CCCC4)n3)C2)n1` (stereo not shown) [Example 96, N-(6-ethylpyridin-2-yl)-3-(2-pyrrolidin-1-ylpyrimidin-4-yl)piperidine-1-sulfanamide]: the Ki on 11β-hsd-1 enzyme [1] is 61 nM. Besides, on 11β-hsd-1 enzyme [2], the inhibition turned out to be 71.6%.
On to `CCc1cccc(NS(=O)(=O)N2CCN(c3ncccc3C#N)CC2)n1` [Example 201, 4-(3-cyanopyridin-2-yl)-N-(6-ethylpyridin-2-yl)piperazine-1-sulfonamide], for which the affinity at 11β-hsd-1 enzyme [1], expressed as Ki, was 33 nM. Besides, at 11β-hsd-1 enzyme [2], the inhibition amounted to 83.9%.
In the case of `N#Cc1ccc(N2CCN(S(=O)(=O)Nc3ccc4ccccc4n3)CC2)nc1` [Example 13], on 11β-hsd-1 enzyme [1], the Ki is 7.3 nM. Further, the inhibition at 0.1 µM on 11β-hsd-1 enzyme [2] came out at 94.9%.
For `CCc1cccc(NS(=O)(=O)N2CCc3ccc(S(C)(=O)=O)cc3CC2)n1` [Example 18], the Ki at 11β-hsd-1 enzyme [1] stood at 13 nM. Besides, on 11β-hsd-1 enzyme [2] (Table 1, inhibitor 0.1 μM), the inhibition at 0.1 µM came out at 78.2%.
Turning to `Cc1ccc(C2(C)CN(S(=O)(=O)Nc3ccc4ccccc4n3)CCO2)cc1` (stereo not shown) [Example 87, 2-methyl-2-(4-methylphenyl)-N-quinolin-2-ylmorpholine-4-sulfonamide], affinity at 11β-hsd-1 enzyme [1] was put at a Ki of 25 nM. Moreover, the inhibition at 11β-hsd-1 enzyme [2] amounted to 85.2%.
On the same counts, the results for `N#Cc1cccnc1N1CCN(S(=O)(=O)Nc2ccc3ccccc3n2)CC1` [Example 162, 4-(3-cyanopyridin-2-yl)-N-quinolin-2-ylpiperazine-1-sulfonamide] are 26 nM and 92.2%.
The compound `CCc1cccc(NS(=O)(=O)N2CCC(OCc3ccccc3)CC2)n1` [Example 91, 4-(benzyloxy)-N-(6-ethylpyridin-2-yl)piperidine-1-sulfonamide] had a Ki at 11β-hsd-1 enzyme [1] of 45 nM. For the same compound, on 11β-hsd-1 enzyme [2], the inhibition worked out at 75.9%.
Compound `Cc1cccc(NS(=O)(=O)N2CCCC(c3ccc(F)cc3)C2)n1` (stereo not shown) [Example 22] had a Ki on 11β-hsd-1 enzyme [1] of 22 nM. For the same compound, the inhibition at 0.1 µM at 11β-hsd-1 enzyme [2] is 90%.
On the same counts, the results for `O=S(=O)(Nc1cccc(CCO)n1)N1CCc2ccccc2CC1` [Example 16, N-[6-(2-hydroxyethyl)pyridin-2-yl]-1,2,4,5-tetrahydro-3H-3-benzazepine-3-sulfonamide] are 2.4 nM and 100%.
Turning to `CCCC1CCCCN1S(=O)(=O)Nc1cccc(CC)n1` (stereo not shown) [Example 103, N-(6-ethylpyridin-2-yl)-2-propylpiperidine-1-sulfonamide], the Ki on 11β-hsd-1 enzyme [1] was 24 nM. Besides, on 11β-hsd-1 enzyme [2], the inhibition was determined as 82.2%.
In the case of `CCc1cccc(NS(=O)(=O)N2CCc3conc3CC2)n1` [Example 181, N-(6-ethylpyridin-2-yl)-4578-tetrahydro-6H-isoxazolo[34-d]azepine-6-sulfonamide], the Ki at 11β-hsd-1 enzyme [1] is 96 nM. Besides, the inhibition at 11β-hsd-1 enzyme [2] turned out to be 83.4%.
Regarding `CCc1cccc(NS(=O)(=O)N2CCCC(OCc3ccccc3)C2)n1` (stereo not shown) [Example 88, 3-(benzyloxy)-N-(6-ethylpyridin-2-yl)piperidine-1-sulfonamide], the inhibitory constant (Ki) on 11β-hsd-1 enzyme [1] turned out to be 52 nM. Besides, the inhibition on 11β-hsd-1 enzyme [2] was found to be 77.1%.
On the same counts, the results for `Cc1cccc(NS(=O)(=O)N2CCN(c3ncc(C(F)(F)F)cc3Cl)CC2)n1` [Example 128, 4-[3-chloro-5-(trifluoromethyl)pyridin-2-yl]-N-(6-methylpyridin-2-yl)piperazine-1-sulfonamide] are 13 nM and 100%.
The compound `Cc1cc(N)nc(NS(=O)(=O)N2CCN(c3ncc(F)cn3)CC2)c1` [Example 31, N-(6-amino-4-methylpyridin-2-yl)-4-(5-fluoropyrimidin-2-yl)piperazine-1-sulfonamide] showed a Ki at 11β-hsd-1 enzyme [1] of 11 nM. The inhibition at 0.1 µM at 11β-hsd-1 enzyme [2] amounted to 100%.
At 11β-hsd-1 enzyme [1], `Cc1cccc(N2CCN(S(=O)(=O)Nc3ccc4ccccc4n3)CC2)n1` [Example 161, 4-(6-methylpyridin-2-yl)-N-quinolin-2-ylpiperazine-1-sulfonamide] gave a Ki of 16 nM. The inhibition at 11β-hsd-1 enzyme [2] was 91.9%.
Consider `CCc1cccc(NS(=O)(=O)N2CCC(c3cccc(O)c3)CC2)n1` [Example 122, N-(6-ethylpyridin-2-yl)-4-(3-hydroxyphenyl)piperidine-1-sulfonamide], for which affinity at 11β-hsd-1 enzyme [1] was put at a Ki of 11 nM. Further, the inhibition on 11β-hsd-1 enzyme [2] was 91.7%.
On the same counts, the results for `CCOC(=O)N1CCN(S(=O)(=O)Nc2ccc3ccccc3n2)CC1` [Example 160, ethyl 4-[(quinolin-2-ylamino)sulfonyl]piperazine-1-carboxylate] are 11 nM and 85.7%.
Consider `CCc1cccc(NS(=O)(=O)N2CCC(c3ccc(C(=O)NC4CCCC4)cc3)CC2)n1` [Example 74, N-cyclopentyl-4-(1-{[(6-ethylpyrin-2-yl)amino]sulfonyl}pipendin-4-yl)benzamide], for which, on 11β-hsd-1 enzyme [1], the Ki came out at 9.6 nM. The inhibition at 11β-hsd-1 enzyme [2] amounted to 88.4%.
As for `Cc1cccc(NS(=O)(=O)N2CC=C(c3ccc(C#N)cc3)CC2)n1` [Example 26, 4-(4-cyanophenyl)-N-(6-methylpyridin-2-yl)-3,6-dihydro-pyridine-1(2H)-sulfonamide], affinity on 11β-hsd-1 enzyme [1] was put at a Ki of 1.6 nM. Besides, the inhibition at 0.1 µM on 11β-hsd-1 enzyme [2] was 100%.
The compound `CCc1cccc(NS(=O)(=O)N2CCCCCC2)n1` [Example 197, N-(6-ethylpyridin-2-yl)azepane-1-sulfonamide] yielded a Ki on 11β-hsd-1 enzyme [1] of 35 nM. In addition, at 11β-hsd-1 enzyme [2], the inhibition came out at 79.5%.
Consider `N#Cc1ccc(C2CCN(S(=O)(=O)Nc3cccc(N)n3)CC2)nc1` [Example 39], for which the Ki on 11β-hsd-1 enzyme [1] came out at 16 nM. For the same compound, the inhibition at 0.1 µM at 11β-hsd-1 enzyme [2] was 91%.
Take `Cc1cccc(NS(=O)(=O)N2CCCC(COCC3CC3)CC2)n1` (stereo not shown) [Example 86, 4-[(cyclopropylmethoxy)-methyl]-N-(6-methylpyridin-2-yl)azepane-1-sulfonamide]: at 11β-hsd-1 enzyme [1], the Ki was found to be 98 nM. The inhibition on 11β-hsd-1 enzyme [2] was 87.6%.

Source of the values: US20070027118A1 (priority 2005, published 2007).
